Test results published in patent US20220315578A1, “BRD9 BIFUNCTIONAL DEGRADERS AND THEIR METHODS OF USE” (NOVARTIS AG, priority 2019, published 2022).

Target: T1, BRD9-GFP (Homo sapiens, UniProt Q9H8M2)
T1 construct: CHYSEL (2A cis-acting hydrolase element) remnant after GFP; mCherry is split off as a separate protein (C); expressed in transfected cells; host or cells: HEK293A cells (Invitrogen R70507), lentiviral transduction with pLenti6-BRD9-GFP-CHYSEL-mCherry, blasticidin selection
T1 sequence (Q9H8M2 1-597): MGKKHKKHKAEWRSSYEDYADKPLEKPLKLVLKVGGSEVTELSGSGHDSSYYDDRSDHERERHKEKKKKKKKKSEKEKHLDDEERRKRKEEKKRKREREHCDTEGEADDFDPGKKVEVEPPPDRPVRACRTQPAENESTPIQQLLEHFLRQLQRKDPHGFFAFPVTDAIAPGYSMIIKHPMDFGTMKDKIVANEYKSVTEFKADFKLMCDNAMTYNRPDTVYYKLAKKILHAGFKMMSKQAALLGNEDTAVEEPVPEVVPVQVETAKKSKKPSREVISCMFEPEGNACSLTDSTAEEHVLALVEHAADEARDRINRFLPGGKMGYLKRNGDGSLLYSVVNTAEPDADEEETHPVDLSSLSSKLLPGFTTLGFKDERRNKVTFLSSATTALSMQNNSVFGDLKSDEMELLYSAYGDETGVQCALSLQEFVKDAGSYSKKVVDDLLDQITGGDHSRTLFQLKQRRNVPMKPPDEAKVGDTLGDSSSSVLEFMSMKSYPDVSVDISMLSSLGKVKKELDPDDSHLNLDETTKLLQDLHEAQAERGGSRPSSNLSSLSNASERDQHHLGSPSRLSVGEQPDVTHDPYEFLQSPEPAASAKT
Experiment: BRD9-GFP protein abundance flow cytometry assay in HEK293A cells
Type: cell-based
Details: HEK293A-BRD9-GFP-CHYSEL-mCherry cells; for BRD9 Deg Amax %: 24 h, % protein remaining at the concentration at which maximum degradation is seen; for DC50: 24 h at 37° C., 10-point 1:3 dilution, concentration at which 50% maximal degradation was observed
Procedure: Compounds of the invention were tested in the following cellular assays. The terms in Table 1 are defined as follows: DC50 refers to the concentration at which 50% maximal degradation was observed; deg Amax is the extent of degradation and the value refers to the % protein remaining at the concentration at which maximum degradation is seen.
BRD9-GFP protein abundance flow cytometry assay in HEK293A cells: Degradation of BRD9 was measured in HEK293A cells expressing BRD9-GFP and mCherry from a stably integrated second generation bicistronic BRD9-GFP-CHYSELmCherry construct. Reduction of the GFP signal measured by flow cytometry served as readout for BRD9 degradation after degrader treatment.
The bicistronic BRD9-GFP-CHYSEL-mCherry construct is based on a pLenti6-DEST vector backbone where a GFP-CHYSEL-mCherry cassette was synthesized and inserted downstream of the DEST cassette by Gibson assembly resulting in the new gateway compatible vector pLenti6-DEST-GFP-CHYSEL-mCherry to allow Gateway cloning with pENTR221-BRD9 (w/o ATG) to obtain the final sensor construct pLenti6-BRD9-GFP-CHYSEL-mCherry.
HEK293 Å-BRD9-GFP-CHYSEL-mCherry sensor cells were generated by lentiviral vector transduction using the pLenti6-BRD9-GFP-CHYSEL-mCherry sensor construct described before. […] The mix was incubated for another 20 min at RT and then added to 1 ml of a freshly prepared suspension of HEK293FT cells in a well of a 6-well plate (concentration 1.2×10^6 cells/ml). 1 day after transfection, the medium was replaced with 1.5 ml of complete growth medium (DMEM high Glucose+10% FCS+1% L-Glutamine+1% NEAA+1% NaPyr.). 48 h post transfection supernatant containing viral transducing particles was collected and frozen at −80° C. […] Infection was performed with […] of collected supernatant containing viral transducing particles in 1 ml medium including 8 μg/ml polybrene. 24 h post infection, stably transfected cells were selected with blasticidin at a concentration of 8 μg/ml.
Stable HEK293 Å-BRD9-GFP-CHYSEL-mCherry cells were maintained in complete growth medium (DMEM high Glucose+10% FCS+1% L-Glutamine+1% NEAA+1% NaPyr.) with passaging performed twice per week. On Day 0, HEK293 Å-BRD9-GFP-CHYSEL-mCherry cells were seeded at 10,000 cells/well in a 96-well microtiter plate in […] complete medium. On Day 1, cells were treated in duplicate with 10-point 1:3 dilution series of compound using the HP D300 Digital Dispenser (Tecan). DMSO concentrations were normalized across the plate to 0.1%. On Day 2, after 24 h of incubation at 37° C., treatment media was discarded, cells rinsed with 100 ul/well PBS and then detached using 40 ul trypsin/well for 5 min. Trypsin was neutralized with 100 ul/well PBS+20% FCS). Flow cytometry was performed on the samples using the Beckman Coulter CytoFLEX flow cytometer. Cell identification was then performed using forward (FSC) vs. side scatter (SSC) plots. Single cell discrimination is performed using FSC-Width (FSC-W) vs. FSC-Height (FSC-H) plots. Median GFP/mCherry ratio values for 5,000 single cells are used to determine BRD9 levels. Median GFP/mCherry ratio values from HEK293 Å-mCherry are used as a background signal and thus defining 0% BRD9 signal. Median GFP/mCherry ratio values from DMSO treated HEK293 Å-BRD9-GFP-CHYSEL-mCherry are used to define 100% BRD9 signal for subsequent DC50 curves (concentration at 50% BRD9 degradation). Concentration response curves plotting relative reduction of the GFP/mCherry ratio signal (measured by flow cytometry) versus 10 compound concentrations (starting concentration […], 3 fold dilution steps) of the compounds allowed generation of DC50 values. Data is shown in Tables 2 and 3, in which, DC50 refers to the concentration at which 50% maximal degradation was observed; deg Amax is the extent of degradation and the value refers to the % protein remaining at the concentration at which maximum degradation is seen.

Structure (SMILES)	BRD9 Deg Amax %	DC50
COc1cc(-c2cn(C)c(=O)c3cnccc23)ccc1OC1CCN(CC2CCN(C(=O)c3ccc(OC)c(N4CCC(=O)NC4=O)c3)CC2)CC1 [Compound A4, 1-(2-Methoxy-5-(4-((4-(2-methoxy-4-(2-methyl-1-oxo-1,2-dihydro-2,7-naphthyridin-4-yl)phenoxy)piperidin-1-yl)methyl)piperidine-1-carbonyl)phenyl)dihydropyrimidine-2,4(1H,3H)-dione]	14.01%	4 nM
COc1cc(-c2cn(C)c(=O)c3cnccc23)ccc1OCC1CCN(CC2CCN(C(=O)c3ccc(OC)c(N4CCC(=O)NC4=O)c3)CC2)CC1 [Compound A5, 1-(2-Methoxy-5-(4-((4-((2-methoxy-4-(2-methyl-1-oxo-1,2-dihydro-2,7-naphthyridin-4-yl)phenoxy)methyl)piperidin-1-yl)methyl)piperidine-1-carbonyl)phenyl)dihydropyrimidine-2,4(1H,3H)-dione]	18.64%	19 nM
COc1ccc(C(=O)N2CCC(CN3CCC(Oc4c(OC)cc(-c5cn(C)c(=O)c6cnccc56)cc4OC)CC3)CC2)cc1N1CCC(=O)NC1=O [Compound A6, 1-(5-(4-((4-(2,6-Dimethoxy-4-(2-methyl-1-oxo-1,2-dihydro-2,7-naphthyridin-4-yl)phenoxy)piperidin-1-yl)methyl)piperidine-1-carbonyl)-2-methoxyphenyl)dihydropyrimidine-2,4(1H,3H)-dione]	12.25%	3 nM
COc1cc(-c2cn(C)c(=O)c3cnccc23)cc(OC)c1OC1CCN(CC2CCN(C(=O)c3ccc(Cl)c(N4CCC(=O)NC4=O)c3)CC2)CC1 [Compound A9, 1-(2-Chloro-5-(4-((4-(2,6-dimethoxy-4-(2-methyl-1-oxo-1,2-dihydro-2,7-naphthyridin-4-yl)phenoxy)piperidin-1-yl)methyl)piperidine-1-carbonyl)phenyl)dihydropyrimidine-2,4(1H,3H)-dione]	20.62%	2 nM
COc1cc(-c2cn(C)c(=O)c3cnccc23)ccc1OC1CCN(CC2CCN(C(=O)c3ccc(Cl)c(N4CCC(=O)NC4=O)c3)CC2)CC1 [Compound A10, 1-(2-Chloro-5-(4-((4-(2-methoxy-4-(2-methyl-1-oxo-1,2-dihydro-2,7-naphthyridin-4-yl)phenoxy)piperidin-1-yl)methyl)piperidine-1-carbonyl)phenyl)dihydropyrimidine-2,4(1H,3H)-dione]	18.93%	2 nM
COc1cc(-c2cn(C)c(=O)c3cnccc23)ccc1OC1CCN(CC2CCN(C(=O)c3cccc(N4CCC(=O)NC4=O)c3)CC2)CC1 [Compound A11, 1-(3-(4-((4-(2-Methoxy-4-(2-methyl-1-oxo-1,2-dihydro-2,7-naphthyridin-4-yl)phenoxy)piperidin-1-yl)methyl)piperidine-1-carbonyl)phenyl)dihydropyrimidine-2,4(1H,3H)-dione]	19.45%	12 nM
COc1ccc(C(=O)N2CCC(CN3CCC(Oc4ccc(-c5cn(C)c(=O)c6cnccc56)cc4)CC3)CC2)cc1N1CCC(=O)NC1=O [Compound A12, 1-(2-Methoxy-5-(4-((4-(4-(2-methyl-1-oxo-1,2-dihydro-2,7-naphthyridin-4-yl)phenoxy)piperidin-1-yl)methyl)piperidine-1-carbonyl)phenyl)dihydropyrimidine-2,4(1H,3H)-dione]	13.46%	2 nM
COc1cc(-c2cn(C)c(=O)c(C)c2C)ccc1CN1CCN(CC2CCN(C(=O)c3ccc(OC)c(N4CCC(=O)NC4=O)c3)CC2)CC1 [Compound A13, 1-(2-Methoxy-5-(4-((4-(2-methoxy-4-(1,4,5-trimethyl-6-oxo-1,6-dihydropyridin-3-yl)benzyl)piperazin-1-yl)methyl)piperidine-1-carbonyl)phenyl)dihydropyrimidine-2,4(1H,3H)-dione]	18.05%	15 nM

Second part, the compound after the results:

BRD9 Deg Amax %	DC50	Structure (SMILES)
10.72%	54 nM	COc1ccc(C(=O)N2CCC(OC3CCN(Cc4c(OC)cc(-c5cc(C)c(=O)n(C)c5)cc4OC)CC3)CC2)cc1N1CCC(=O)NC1=O [Compound A1]
13.39%	63 nM	COc1cc(-c2cc(C)c(=O)n(C)c2)ccc1C(=O)N1CCC(OC2CCN(C(=O)c3ccc(OC)c(N4CCC(=O)NC4=O)c3)CC2)CC1 [Compound A2, 1-(5-(4-((1-(4-(1,5-Dimethyl-6-oxo-1,6-dihydropyridin-3-yl)-2-methoxybenzoyl)piperidin-4-yl)oxy)piperidine-1-carbonyl)-2-methoxyphenyl)dihydropyrimidine-2,4(1H,3H)-dione]
12.29%	68 nM	COc1cc(-c2cc(C)c(=O)n(C)c2)ccc1C(=O)N1CCN(CC2CCN(C(=O)c3ccc(OC)c(N4CCC(=O)NC4=O)c3)CC2)CC1 [Compound A3, 1-(5-(4-((4-(4-(1,5-Dimethyl-6-oxo-1,6-dihydropyridin-3-yl)-2-methoxybenzoyl)piperazin-1-yl)methyl)piperidine-1-carbonyl)-2-methoxyphenyl)dihydropyrimidine-24(1H,3H)-dione]
21.30%	60 nM	COc1cc(-c2cc(C)c(=O)n(C)c2)c(OC)cc1CN1CCC(OC2CCN(C(=O)COc3ccc(N4CCC(=O)NC4=O)cc3)CC2)CC1 [Compound A7, 1-(4-(2-(4-((1-(4-(1,5-Dimethyl-6-oxo-1,6-dihydropyridin-3-yl)-2,5-dimethoxybenzyl)piperidin-4-yl)oxy)piperidin-1-yl)-2-oxoethoxy)phenyl)dihydropyrimidine-2,4(1H,3H)-dione]
16.25%	70 nM	COc1cc(-c2cc(C)c(=O)n(C)c2)cc(OC)c1CN1CCC(OC2CCN(C(=O)COc3ccc(N4CCC(=O)NC4=O)cc3)CC2)CC1 [Compound A8, 1-(4-(2-(4-((1-(4-(1,5-Dimethyl-6-oxo-1,6-dihydropyridin-3-yl)-2,6-dimethoxybenzyl)piperidin-4-yl)oxy)piperidin-1-yl)-2-oxoethoxy)phenyl)dihydropyrimidine-2,4(1H,3H)-dione]
